From patent US20230365563A1, “QUINAZOLINE COMPOUND AND APPLICATION THEREOF” (SHANGHAI PHARMACEUTICALS HOLDING CO., LTD., priority 2020, published 2023)
Counter-ions that a name gives are not always drawn.

Tests used:
KRAS_G12D and cRAF = molecular target: T1, KRAS_G12D and cRAF (Homo sapiens, UniProt P01116, G12D); experiment: Inhibition of KRAS_G12D/cRAF binding (Cisbio binding kit, 665/615 ratio), Effect Embodiment B; conditions: read-out: GTP-KRAS-G12D:CRAF IC50
T1 construct: purchased
In short: (§1)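 Compounds are tested over eleven threefold dilution steps in duplicate, with final DMSO at 1%.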

KRAS_WT and SOS1 = molecular target: T2, KRAS_WT and SOS1 (Homo sapiens, UniProt P01116); experiment: Inhibition of KRAS_WT/SOS1 binding (Cisbio binding kit, 665/615 ratio), Effect Embodiment C; conditions: read-out: GTP-KRAS-WT:SOS1 IC50
T2 construct: purchased
In short: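 Compounds tested as 3-fold, 11-point dilutions in duplicate at 1% DMSO final against the KRAS_WT/SOS1 binding system. IC50 derived by nonlinear regression fit.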

KRAS-G12D and SOS1 = molecular target: T3, KRAS-G12D and SOS1 (Homo sapiens, UniProt P01116, G12D); experiment: Inhibition of KRAS-G12D/SOS1 binding (Cisbio binding kit, 665/615 ratio), Effect Embodiment A; conditions: read-out: GTP-KRAS-G12D:SOS1 IC50
T3 construct: purchased
In short: as §1

Row | Molecule | IC50 (KRAS_G12D and cRAF) [nM] | IC50 (KRAS_WT and SOS1) [nM] | IC50 (KRAS-G12D and SOS1) [nM]
1 | CN1CCC[C@H]1COc1nc(N2CC3CCC(C2)N3)c2cc(F)c(-c3cc(O)cc4ccccc34)c(F)c2n1 [Compound 160, 4-(4-((1R,5S)-3,8-diazabicyclo[3.2.1]octan-3-yl)-6,8-difluoro-2-((S)-1-methylpyrrolidin-2-yl)methoxy)quinazolin-7-yl)naphthalen-2-ol dihydrochloride] | 32.4 | 390 | 27.4
2 | Oc1cc(-c2c(Cl)cc3c(N4CC5CCC(C4)N5)nc(OC[C@@H]4CCCN4CC4CC4)nc3c2F)c2ccccc2c1 [Compound 172, 4-(4-((1R,5S)-3,8-diazabicyclo[3.2.1]octan-3-yl)-6-chloro-2-((S)-1-(cyclopropylmethyl)pyrrolidin-2-yl)methoxy)-8-fluoroquinazolin-7-yl)naphthalen-2-ol dihydrochloride] | 62.7 | 658 | 19.3
3 | Oc1cc(-c2cc(F)c3c(N4CC5CCC(C4)N5)nc(OCCCN4C5CCC4COC5)nc3c2F)c2ccccc2c1 [Compound 253, 4-(2-(3-(3-Oxa-8-azabicyclo[3.2.1]octan-8-yl)propoxy)-4-((1R,5S)-3,8-diazabicyclo[3.2.1]octan-3-yl)-5,8-difluoroquinazolin-7-yl)naphthalen-2-ol formate] | 489 | 1980 | 63
4 | ((3R or 3S, 7aR or 7aS)-7a-((4-((1R,5S)-3,8-diazabicyclo[3.2.1]octan-3-yl)-6-chloro-8-fluoro-7-(3-hydroxynaphthalen-1-yl)quinazolin-2-yl)oxy)methyl)hexahydro-1H-pyrrolidin-3-yl)dimethylcarbamate tristrifluoroacetate [Compound 232b] | 14.8 | 66.2 | 13.5
